Test [1] in a line: In vitro potassium channel opening activity in A10 (smooth muscle) cells; Inactive. The test is classed as functional, cell-based, Rattus norvegicus.
The next test concerns Rattus norvegicus. Kind of test: Effective dose required for lowering of blood pressure, when administered intravenously to CUP-anesthetized rats. The test is classed as functional. The settings on record: iv.
Test [2] is described as follows: In vitro potassium channel opening activity in A10 (smooth muscle) cells. In kind it is functional, cell-based, Rattus norvegicus.

As a reminder, the EC50 is the concentration that produces a half-maximal response. The low end stands for a more potent agent, the high end for a less potent agent.

`CCCNC1=NC(=O)[C@]2(CC(C)(C)Oc3ccc(Br)cc32)N1`: the EC50 result in test [1] is “Not Active”.

In turn, `CCCNC1=NC(=O)[C@@]2(CC(C)(C)Oc3ccc(Br)cc32)N1` returned an ED30 in the test on Rattus norvegicus of 2.5 µg/kg. This molecule gave an EC50 in test [2] of 4 nM.

These data come from ChEMBL document CHEMBL1128819, “Chiral spirocyclic benzopyran potassium channel openers: Evidence for the active conformation of levcromakalim” (Bioorg Med Chem Lett, 1995).
